The term IC50 denotes the concentration that gives 50% inhibition. For orientation: EC50 means the concentration that produces a half-maximal response.

Several values for one entry are separate records, joined by “and”; a condition that tells them apart may be missing. Equal entries are not always repeated.

The record followed here is patent US11433040B2, “Methods for modifying endoplasmic reticulum processing of protein” (priority 2017, dated 2022).

In one series the target is T1, human Sec24a (Homo sapiens, UniProt O95486).
T1 construct: His6 (TEV-cleavable) (N, cleaved yes); made in house; host or cells: High Five insect cells (baculovirus)
T1 sequence (O95486 341-1093): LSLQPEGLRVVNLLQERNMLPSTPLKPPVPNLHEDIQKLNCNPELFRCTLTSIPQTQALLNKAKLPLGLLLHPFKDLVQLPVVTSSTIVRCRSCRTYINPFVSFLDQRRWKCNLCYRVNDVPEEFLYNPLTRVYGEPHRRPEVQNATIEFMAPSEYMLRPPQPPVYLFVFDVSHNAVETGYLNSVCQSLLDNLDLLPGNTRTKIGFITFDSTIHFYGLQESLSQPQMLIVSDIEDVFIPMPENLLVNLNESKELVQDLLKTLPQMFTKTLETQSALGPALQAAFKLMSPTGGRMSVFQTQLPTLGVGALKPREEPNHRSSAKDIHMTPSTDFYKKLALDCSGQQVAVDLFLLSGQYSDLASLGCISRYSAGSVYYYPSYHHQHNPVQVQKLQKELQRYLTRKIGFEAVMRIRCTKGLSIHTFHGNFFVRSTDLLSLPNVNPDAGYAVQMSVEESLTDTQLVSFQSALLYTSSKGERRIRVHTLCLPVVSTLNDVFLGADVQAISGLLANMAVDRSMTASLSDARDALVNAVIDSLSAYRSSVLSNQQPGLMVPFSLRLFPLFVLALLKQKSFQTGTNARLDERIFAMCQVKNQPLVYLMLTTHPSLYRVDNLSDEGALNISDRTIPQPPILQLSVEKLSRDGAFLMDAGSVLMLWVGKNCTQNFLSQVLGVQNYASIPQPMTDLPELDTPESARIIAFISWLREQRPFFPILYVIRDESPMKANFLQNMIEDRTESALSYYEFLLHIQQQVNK
The series is described as follows: Fluorescence polarization assay: displacement of 5-Fam-[…] from Sec24a. Conditions: fluorescence polarization at 22° C.; value ± standard error; read-out: IC50, displacement of fluorescent probe 5-Fam-QIYTDIEANR from Sec24a. The series is classed as binding. (Fluorescence polarisation rises when a labelled molecule tumbles more slowly, as on binding a larger partner.)

Series [1] deals with G544V-mutant LDL receptor. The series is described as follows: Cell-based trafficking assay: restoration of glycosylation/trafficking of mutant LDL receptor in CHO cells. Set-up: species or system human. Conditions: for EC50: CHO cells expressing G544V-mutant LDL receptor, 2 hours at 37° C., value ± standard error, read-out: EC50, acquisition of mutant LDL receptor glycosylation. As to the method:
(§1) T-Rex-CHO-K1 cloned cell lines expressing wild-type and mutant LDL receptor were cultured as described in Sorensen et al. (2006) and Tveten et al. (2007), and according to the manufacturer's protocols (Thermo Fisher Scientific). The expression in CHO cells of G544V-mutant or wildtype LDL receptor protein was induced with 1 μg/mL tetracycline for 24 h prior to experiments with 4-PBA or 4-PBA analogs (Tveten et al. (2007)). To compare pharmacological potency of 4-PBA analogs, cells were incubated with the compounds for 2 hours at 37° C. in 12-well 22 mm plates (Corning Costar #3513). For experiments concerning the extracellular secretion of GRP94 (FIG. 5), the incubations with 4-PBA were extended to 24 hours. Cells were broken in lysis buffer (1% (v/v) Triton X-100, 150 mM NaCl, 10 mM EDTA, 50 mM Tris-HCl pH 7.5) and cleared by centrifugation (15,000 g for 15 minutes). Cellular protein concentration was measured using “Protein Assay Kit II” (Bio-Rad) with bovine serum albumin as standard. Lysates were added to Laemmli sample buffer (New England BioLabs) containing 130 mM dithiothreitol and heated for 15 min at 55° C. Cell medium (containing secreted proteins) was added to Laemmli sample buffer containing 5% β-mercaptoethanol and boiled for 5 min. Samples were run on 4-15% Tris/HCl Criterion gels (Bio-Rad) followed by immunoblotting.
Chemiluminescence signals from western blots for the glycosylated (160 kDa) form of G544V mutant LDL receptor were quantified as a percentage of total LDL receptor protein (glycosylated+unglycosylated bands). Data at high concentrations of 4-PBA analogs, which show inhibition of LDL receptor trafficking, were omitted. Data from individual experiments were normalized (to obtain maximal response=100%), so that data from replicate experiments (n=4-5) could be averaged. Logistic fitting to the dose-response data was carried out with program Ultrafit (Elsevier Biosoft). […] Data from fluorescence polarization titrations (FIGS. 6(E)-6(G)) were analyzed with Ultrafit, and IC50 values were determined from plots using nonlinear curve fitting. […] IC50 values were converted to true affinities, Ki, using the approach of (Nikolovska-Coleska et al., 2004), and these are used in the scatter plot, FIG. 6(H).
A system comprising a CHO (T-Rex-CHO-K1) cell clone expressing the G544V-mutant human LDL receptor under a tetracycline-inducible promoter was used (see General Methods) to measure the packaging of resident proteins and a misfolded mutant LDL receptor into COPII vesicles budded from permeabilized cells. The G544V-mutant human LDL receptor is a naturally occurring transport-defective (class 2) mutant LDL receptor with a point mutation in the luminal β-propeller domain that causes ER trapping with chaperone association. 4-PBA has been show to restore transportation of G544V-mutant human LDL receptor to the plasma membrane (Tveten et al. (2007)).
CHO cells expressing G544V-mutant LDL receptor were incubated with the indicated concentrations of 4-PBA analogs for 2 hours at 37° C. Cell lysates were analyzed by immunoblotting for the appearance of 160 kDa mature glycosylated LDL receptor (labeling indicates the position of 160 kDa mature glycosylated and 120 kDa precursor forms of LDL receptor). Gamma correction was applied to the immunoblot images.

In series [2] the target is T2, COPII coat proteins (Sec23a/24d) (Homo sapiens, UniProt O94855).
T2 construct: Sec23a/Sec24d (full-length protein) for COPII budding assays; made in house; host or cells: High Five insect cells (Sec23a/24d, Sec13a/31a); E. coli BL21(DE3) (Sar1a); added to digitonin-permeabilized T-Rex-CHO-K1 cells
The experiment in a line: In vitro COPII budding assay with permeabilized CHO cells. The series is classed as biochemical, H. sapiens. The conditions noted are these: 10 mM 4-PBA. As to the method:
In vitro COPII budding reactions used permeabilized cells prepared from the T-Rex-CHO-K1 parent line and from the clone that expresses mutant LDL receptor. Permeabilization was carried out as described in Mancias and Goldberg (2008) with modifications. Two culture dishes (150 mm) of cells were prepared with cells at no greater than 60% confluence. Cells were washed with 20 ml PBS at 37° C. and then trypsinized with 2 ml of Trypsin-EDTA (0.05%, Gibco) for 1 min at 37° C.; 100 μl of Soybean Trypsin Inhibitor (2 mg/ml; Sigma) was added to each culture plate. Next, 5.5 ml ice-cold KHM buffer (110 mM KOAc, 20 mM Hepes pH 7.2, 2 mM magnesium acetate) was added per plate, and cells were transferred to a 15 ml Falcon tube and pelleted gently (250 g for 3 min at 4° C.). The supernatant was aspirated and the cells re-suspended in 6 ml ice-cold KHM buffer. To permeabilize the cells, 6 μl digitonin stock solution (40 mg/ml in dimethyl sulfoxide) was added, cells were mixed by inversion and incubated on ice for 5 minutes. To terminate permeabilization, cells were diluted to 14 ml with KHM buffer and immediately pelleted at 250 g for 3 min at 4° C. […] The protein concentration was measured using protein assay kit (Bio-Rad) with BSA as standard; routinely, the measurement is in the range 4-5 mg/ml. […]

The test system of another series is GRP94. The class given is cell-based. As to the method: as §1
[…] The presence of KDEL tagged (SEQ ID NO: 3) luminal chaperone GRP94 inside and outside cells was measured.

The target of another series is T3, Sec23a/Sec24a⋅Sec22b (Homo sapiens, UniProt O95486).
T3 construct: His6 (TEV-cleavable) (N, cleaved yes); made in house; host or cells: High Five insect cells (Sec23a/Sec24a); E. coli (Sec22b)
The experiment in a line: Crystal soaking and X-ray difference Fourier maps. The series is classed as binding. Conditions: crystals soaked at 1, 15 and 50 mM 4-PBA. As to the method: The Sec23a/Sec24a⋅Sec22b complex was crystallized as described in Mancias and Goldberg (2007) from a solution comprising 10% (w/v) PEG 4000, 500 mM Na acetate and 50 mM Tris-HCl pH 7.9. Crystals were transferred into a soaking buffer of 10% (w/v) PEG 4000, 600 mM NaCl, 50 mM Tris-HCl buffer, pH 7.9. Either 4-PBA (0-50 mM) or 5 mM ΦC signal peptide was added to the crystal containing solution, and the ligand soaking proceeded for five hours at 22° C. Crystals were then transferred to an equivalent ligand-containing buffer with additional 24% ethylene glycol cryo-protectant, and were flash frozen in liquid nitrogen. Crystals treated in this manner diffracted synchrotron X-rays to 2.5-2.8 Å resolution.
X-ray diffraction data were collected at 0.979 Å wavelength on beamline ID-24C or ID-24E of the Advanced Photon Source, Argonne National Laboratory. Data were processed with the program HKL2000 (Otwinowski and Minor (1997); see Tables 1 and 2). Structure refinement was carried out using Phenix (Adams et al. (2010)), initially by rigid-body improvement, followed by positional refinement, based on the published coordinates of Sec23a/Sec24a⋅Sec22b (PDB 2NUT; Mancias and Goldberg (2007)). Models for […] signal peptides or 4-PBA were not included in refinements prior to the creation of FIG. 1, to eliminate potential phase bias. […]

T2 sequence (O94855 whole entry): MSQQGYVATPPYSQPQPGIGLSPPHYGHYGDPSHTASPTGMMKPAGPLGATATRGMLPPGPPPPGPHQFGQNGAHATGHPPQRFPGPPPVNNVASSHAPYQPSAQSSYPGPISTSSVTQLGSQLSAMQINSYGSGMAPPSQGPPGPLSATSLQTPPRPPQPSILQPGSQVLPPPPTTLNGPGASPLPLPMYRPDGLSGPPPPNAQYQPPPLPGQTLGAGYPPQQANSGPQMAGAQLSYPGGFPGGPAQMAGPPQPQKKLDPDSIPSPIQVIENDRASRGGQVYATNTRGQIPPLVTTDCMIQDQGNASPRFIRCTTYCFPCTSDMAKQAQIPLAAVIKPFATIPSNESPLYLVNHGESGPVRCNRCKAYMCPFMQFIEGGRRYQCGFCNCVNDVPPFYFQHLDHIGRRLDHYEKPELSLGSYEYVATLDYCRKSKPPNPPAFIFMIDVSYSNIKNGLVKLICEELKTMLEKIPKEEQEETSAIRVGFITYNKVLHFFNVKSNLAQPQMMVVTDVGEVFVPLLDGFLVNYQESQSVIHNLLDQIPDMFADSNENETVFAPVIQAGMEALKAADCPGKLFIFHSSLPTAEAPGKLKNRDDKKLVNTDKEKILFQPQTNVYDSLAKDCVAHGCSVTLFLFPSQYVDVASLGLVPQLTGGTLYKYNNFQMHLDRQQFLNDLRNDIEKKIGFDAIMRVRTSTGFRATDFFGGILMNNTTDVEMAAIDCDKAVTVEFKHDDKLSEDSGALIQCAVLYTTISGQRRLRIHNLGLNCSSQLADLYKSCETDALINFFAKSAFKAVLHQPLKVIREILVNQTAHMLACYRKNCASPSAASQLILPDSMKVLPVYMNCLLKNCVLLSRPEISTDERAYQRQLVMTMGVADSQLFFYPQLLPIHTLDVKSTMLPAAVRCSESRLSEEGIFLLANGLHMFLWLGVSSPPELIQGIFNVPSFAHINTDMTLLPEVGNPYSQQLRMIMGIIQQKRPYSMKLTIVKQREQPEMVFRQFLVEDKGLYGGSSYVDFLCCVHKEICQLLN
T2 sequence (Q15436 whole entry partner): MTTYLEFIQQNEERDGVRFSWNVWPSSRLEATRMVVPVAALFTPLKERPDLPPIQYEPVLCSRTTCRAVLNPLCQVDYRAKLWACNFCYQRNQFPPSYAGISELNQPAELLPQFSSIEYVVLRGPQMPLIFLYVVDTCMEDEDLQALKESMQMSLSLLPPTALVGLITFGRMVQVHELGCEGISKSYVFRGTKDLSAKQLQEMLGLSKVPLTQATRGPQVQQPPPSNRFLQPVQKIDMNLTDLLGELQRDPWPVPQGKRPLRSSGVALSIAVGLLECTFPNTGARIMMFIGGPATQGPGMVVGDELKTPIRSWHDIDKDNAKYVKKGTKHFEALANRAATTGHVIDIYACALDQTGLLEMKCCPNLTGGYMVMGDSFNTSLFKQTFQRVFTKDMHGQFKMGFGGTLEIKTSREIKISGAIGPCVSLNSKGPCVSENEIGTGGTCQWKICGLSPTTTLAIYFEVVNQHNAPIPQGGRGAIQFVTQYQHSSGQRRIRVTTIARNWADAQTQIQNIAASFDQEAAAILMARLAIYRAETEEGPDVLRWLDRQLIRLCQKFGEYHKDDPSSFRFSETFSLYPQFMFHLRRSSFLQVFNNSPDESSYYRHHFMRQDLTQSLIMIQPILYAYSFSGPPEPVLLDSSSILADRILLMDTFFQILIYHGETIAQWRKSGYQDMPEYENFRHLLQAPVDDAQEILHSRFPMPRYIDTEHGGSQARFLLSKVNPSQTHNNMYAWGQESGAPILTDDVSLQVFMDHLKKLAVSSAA
T3 sequence (Q15436 whole entry partner, one chain of several): as the sequence (Q15436 whole entry partner) above
T3 sequence (O75396 1-195 partner limits assumed, one chain of several): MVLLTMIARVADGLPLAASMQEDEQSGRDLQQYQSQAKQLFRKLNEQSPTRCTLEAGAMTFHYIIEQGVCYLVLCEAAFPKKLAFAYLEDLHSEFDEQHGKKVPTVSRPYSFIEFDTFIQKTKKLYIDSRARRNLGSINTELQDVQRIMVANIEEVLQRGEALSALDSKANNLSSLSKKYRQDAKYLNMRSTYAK

Turning to `O=C(O)CCc1ccccc1` [3-PPA, 3-phenylpropionate], the IC50 at human Sec24a is 4.11 ± 0.34 mM. In addition, the concentration for a half-maximal effect (EC50) in series [1] came out at 7.48 ± 0.68 mM.

Consider `O=C(O)CCCc1ccccc1` [4-PBA, 4-phenylbutyrate], for which, in series [2], the “packaging of ER residents and mutant LDL receptor into COPII vesicles” value is on record as “significant enrichment”; the “reduction in the packaging rate of p24 proteins and ERGIC-53” value came out at 50%. For the same compound, the IC50 on human Sec24a came out at 3.66 ± 0.22 mM. The “secretion of GRP94 from CHO cells” value with GRP94 (0-40 mM 4-PBA, 24 hours) is listed as “dose-dependent”. In addition, the cell lysis result in the series with GRP94 (45 mM 4-PBA, highest concentration) is recorded as “cell lysis was detected”. Also, in the series on GRP94 (24 hours at 37° C., ER stressed and ER unstressed CHO cells), the “4-PBA concentration of maximal GRP94 secretion” value is on record as 20 mM. The “4-PBA concentration at which unfolded protein response (UPR) was attenuated” value in the series on GRP94 (CHO cells expressing G544V-mutant LDL receptor, 24 hours at 37° C.) was in the range of 10 to 20 mM. Also, in series [1] (10 mM 4-PBA applied to cells), the “restored trafficking of mutant LDL receptor (share of the receptor)” value was at most 25%. Also, in series [1], the EC50 is 6.37 mM and 6.4 mM. Also, the “binding to the B site of Sec24a” value at Sec23a/Sec24a⋅Sec22b is reported as “clear evidence for binding”.

In the case of `O=C(O)CCCCc1ccccc1` [5-PVA, 5-phenylvalerate], the IC50 on human Sec24a was 0.99 ± 0.08 mM. For the same compound, the half-maximal effective concentration (EC50) in series [1] worked out at 3.36 ± 0.42 mM.

Turning to `O=C(O)CCCc1ccc(O)cc1` [Hydroxy-PBA, 4-(4-hydroxyphenyl)butyrate], on human Sec24a, the IC50 turned out to be 5.04 ± 0.69 mM. The concentration for a half-maximal effect (EC50) in series [1] was determined as 10.6 ± 0.4 mM.

Take `O=C(O)CCc1ccc(O)cc1` [Hydroxy-PPA, 3-(4-hydroxyphenyl)propionate]: at human Sec24a, the half-inhibitory concentration (IC50) turned out to be 9.22 ± 0.94 mM. Also, the 50% effective concentration (EC50) in series [1] was 21.7 ± 1.03 mM.

`COc1ccc(CCCC(=O)O)cc1` [Methoxy-PBA, 4-(4-methoxyphenyl)butyrate]: at human Sec24a, the IC50 turned out to be 4.14 ± 0.7 mM. Also, in series [1], the EC50 came to 8.63 ± 0.98 mM.

In the case of `Cc1ccc(CCCC(=O)O)cc1` [Tolyl-BA, 4-(4-tolyl)butyrate], the half-inhibitory concentration (IC50) at human Sec24a was 1.7 ± 0.16 mM. Further, the concentration giving a half-maximal response (EC50) in series [1] was determined as 4.89 ± 0.24 mM.
